Laboratory results from US8412459B2, “Method for determining the allergic potential of a compound” (Vlaamse Instelling Voor Technologisch Onderzoek (VITO), priority 2006, dated 2013).

Key:
[1] = test system: CD34-DCs; test: RT-PCR gene expression in CD34-DCs; classification model (lda + quadratic discriminant) on NINJ, PBEF1, CCR7, CREM, leave-one-compound-out cross validation; details: LFC of NINJ, exposure 6, 12 and 24 h at concentration of EC20, on average 3 individuals, test compound left out of training
[2] = a priori known, from literature / in vivo tests; cited from earlier work

Molecule	class predicted by the classification model in cross validation (sensitizer / non-sensitizer) [1]	known sensitizing classification / strength [2]
C[S+](C)[O-] [DMSO, dimethylsulfoxide]	non-sensitizers	–
O=[N+]([O-])c1ccc(Cl)c([N+](=O)[O-])c1 [DNCB, 1-chloro-2,4-dinitrobenzene]	–	strong sensitizer
C=CCc1ccc(O)c(OC)c1 [Eugenol, 2-Methoxy-4-(2-propenyl)phenol]	–	weak sensitizing capacity
CCC[CH2][Sn]([Cl])([CH2]CCC)[CH2]CCC [TBT, Tributyltin chloride]	non-sensitizers	–
tritonX-100	non-sensitizers	–
